Data: BigSolDB 2.1

CCOC(=O)[C@@H](N)Cc1ccccc1.Cl showed a solubility (mole fraction) (in 1,4-dioxane, 288.15 K) of 0.0023, a solubility (mole fraction) (in 1,4-dioxane, 293.15 K) of 0.00301 and a solubility (mole fraction) (in 1,4-dioxane, 298.15 K) of 0.0037. The solubility (mole fraction) (in 1,4-dioxane, 303.15 K) was 0.00498, the solubility (mole fraction) (in 1,4-dioxane, 308.15 K) was 0.00668 and the solubility (mole fraction) (in 1,4-dioxane, 313.15 K) was 0.00876. The solubility (mole fraction) (in 1,4-dioxane, 318.15 K) was 0.0115, the solubility (mole fraction) (in 1,4-dioxane, 323.15 K) was 0.0148 and the solubility (mole fraction) (in 2-butoxyethanol, 283.15 K) was 0.035. For the same compound, the solubility (mole fraction) (in 2-butoxyethanol, 288.15 K) was 0.039, the solubility (mole fraction) (in 2-butoxyethanol, 293.15 K) was 0.0435 and the solubility (mole fraction) (in 2-butoxyethanol, 298.15 K) was 0.0473. It also gave a solubility (mole fraction) (in 2-butoxyethanol, 303.15 K) of 0.052, a solubility (mole fraction) (in 2-butoxyethanol, 308.15 K) of 0.0575 and a solubility (mole fraction) (in 2-butoxyethanol, 313.15 K) of 0.0633. The solubility (mole fraction) (in 2-butoxyethanol, 318.15 K) was 0.0695, the solubility (mole fraction) (in 2-butoxyethanol, 323.15 K) was 0.076 and the solubility (mole fraction) (in 2-propoxyethanol, 283.15 K) was 0.042. The solubility (mole fraction) (in 2-propoxyethanol, 288.15 K) was 0.0472, the solubility (mole fraction) (in 2-propoxyethanol, 293.15 K) was 0.052 and the solubility (mole fraction) (in 2-propoxyethanol, 298.15 K) was 0.0557. For the same compound, the solubility (mole fraction) (in 2-propoxyethanol, 303.15 K) was 0.0616, the solubility (mole fraction) (in 2-propoxyethanol, 308.15 K) was 0.0675 and the solubility (mole fraction) (in 2-propoxyethanol, 313.15 K) was 0.0738. The solubility (mole fraction) (in 2-propoxyethanol, 318.15 K) was 0.08, the solubility (mole fraction) (in 2-propoxyethanol, 323.15 K) was 0.087 and the solubility (mole fraction) (in THF, 283.15 K) was 0.00079. The solubility (mole fraction) (in THF, 288.15 K) was 0.00102, the solubility (mole fraction) (in THF, 293.15 K) was 0.00127 and the solubility (mole fraction) (in THF, 298.15 K) was 0.0016. For the same compound, the solubility (mole fraction) (in THF, 303.15 K) was 0.00204, the solubility (mole fraction) (in THF, 308.15 K) was 0.00257 and the solubility (mole fraction) (in THF, 313.15 K) was 0.00316. The solubility (mole fraction) (in THF, 318.15 K) was 0.00398, the solubility (mole fraction) (in THF, 323.15 K) was 0.00491 and the solubility (mole fraction) (in isopropanol, 283.15 K) was 0.0074. It also gave a solubility (mole fraction) (in isopropanol, 288.15 K) of 0.00934, a solubility (mole fraction) (in isopropanol, 293.15 K) of 0.0117 and a solubility (mole fraction) (in isopropanol, 298.15 K) of 0.0147. The solubility (mole fraction) (in isopropanol, 303.15 K) was 0.0189, the solubility (mole fraction) (in isopropanol, 308.15 K) was 0.0227 and the solubility (mole fraction) (in isopropanol, 313.15 K) was 0.0278. The solubility (mole fraction) (in isopropanol, 318.15 K) was 0.0337, the solubility (mole fraction) (in isopropanol, 323.15 K) was 0.0413 and the solubility (mole fraction) (in n-butanol, 283.15 K) was 0.0176. It also gave a solubility (mole fraction) (in n-butanol, 288.15 K) of 0.0218, a solubility (mole fraction) (in n-butanol, 293.15 K) of 0.0262 and a solubility (mole fraction) (in n-butanol, 298.15 K) of 0.032. For the same compound, the solubility (mole fraction) (in n-butanol, 303.15 K) was 0.0355, the solubility (mole fraction) (in n-butanol, 308.15 K) was 0.0417 and the solubility (mole fraction) (in n-butanol, 313.15 K) was 0.0509. For the same compound, the solubility (mole fraction) (in n-butanol, 318.15 K) was 0.0601, the solubility (mole fraction) (in n-butanol, 323.15 K) was 0.0696 and the solubility (mole fraction) (in n-propanol, 283.15 K) was 0.0272. It also gave a solubility (mole fraction) (in n-propanol, 288.15 K) of 0.0316, a solubility (mole fraction) (in n-propanol, 293.15 K) of 0.0367 and a solubility (mole fraction) (in n-propanol, 298.15 K) of 0.0423. It also gave a solubility (mole fraction) (in n-propanol, 303.15 K) of 0.0491, a solubility (mole fraction) (in n-propanol, 308.15 K) of 0.0566 and a solubility (mole fraction) (in n-propanol, 313.15 K) of 0.0656. It also gave a solubility (mole fraction) (in n-propanol, 318.15 K) of 0.0734 and a solubility (mole fraction) (in n-propanol, 323.15 K) of 0.0838.
